Reference: patent US12637500B2, “Tumor antigen peptide” (Niigata University, priority 2015, dated 2026)

What was measured:
HLA-A24 = HLA-A24 binding assay (MFI shift on T2-A24 cells); parameters: species or system human; settings: for binding to HLA-A24: T2-A24 cells, MFI shift
Experimental: T2-A24 cells, which are HLA-A24-expressing T2 cells, were preincubated in a CO2 incubator at 27° C. overnight. The cells collected were resuspended in Opti-MEM and plated on a round bottom 96 well plate (Corning) with about 1×10^5 cells/200 μL per well. A subject peptide was added at concentrations of 0.33 μM, […], and 10 μM, and incubation was carried out in a CO2 incubator at 27° C. for 3 hours and subsequently at 37° C. for 2.5 hours. Subsequently, the cells were subjected to centrifugation (380 g, 5 minutes) as they were on the plate, resuspended in 100 μL of a C7709A2 monoclonal antibody-producing hybridoma culture supernatant, and incubated on ice for 45 to 60 minutes. The cells were washed with ice-cooled PBS and then incubated together with an FITC-conjugated goat anti-mouse IgG antibody (KPL, Gaithersburg, MD) on ice for 30 minutes. The cells were washed with ice-cooled PBS as they were on the plate, then resuspended in 1% formaldehyde and PBS, and analyzed by a FACScan (BD Biosciences, Mountain View, CA), and the mean fluorescence intensity (MFI) shift (fluorescence increase as a result of stabilization by binding peptide) due to an increase in the amount of stable HLA-A24 molecules was thus measured. A cell treated with nonbinding peptide GK12 (concentration 0 to 10 μM) has a constant MFI and it was used as a negative control.
The MFI shift (AMFI) for a peptide concentration of 1 μM was measured for 26 types of randomly selected peptides of the natural peptides obtained in Example 1 above. A score was also calculated for these peptides using NetMHC3.4, and correlation with ΔMFI was investigated.

human PBMC = experiment: CTL induction from PBMC by peptide stimulation; type: cell-based; settings: peptide 10 μg/mL, PBMC of HLA-A24-positive healthy controls, method of Example 5 (1)
Experimental: Peripheral blood was collected using a heparin-containing 50 ML syringe from HLA-A24-positive healthy controls who had given informed consent. The whole blood was layered in a 50 mL tube (Falcon) to which 13 mL of Lymphoprep (Nycomed) had been added, and subjected to centrifugation at 2000 rpm for 30 minutes. A PBMC layer precipitated on the Lymphoprep layer was recovered using a pipette and washed three times with PBS, thus giving human PBMC.
About 3×10^7 cells/plate of the human PBMC separated above and 10 mL of Hepes-modified RPMI1640 medium (Sigma) containing 2-mercaptoethanol (final concentration 55 μM), L-glutamine (final concentration 2 mM), as antibiotics streptomycin (final concentration 100 μg/mL) and penicillin G (final concentration 100 U/mL), and 5% serum component were placed in each well of a […] for cell culture (BECTON DIKINSON), and suspension cultured. PVT1-derived natural antigen peptide of SEQ ID No: 1 (hereinafter referred to as ‘HF10’) or SUV39H2-derived natural antigen peptide of SEQ ID No: 2 (hereinafter referred to as ‘RF8’) were added thereto at a concentration of 10 μg/mL. After culturing was carried out for 2 days, IL-2 was added at a final concentration of 50 U/mL, and culturing was carried out for a further 2 weeks. […]

Substance: KYVKDFHKF [SEQ ID No: 3, ZNF724P-derived natural peptide]
- binding to HLA-A24 (HLA-A24): high binding

Substance: GK12: synthetic nonbinding peptide used as negative control for HLA-A24 binding (GYISPYFINTSK) [reference compound]
- MFI of T2-A24 cells treated with peptide (HLA-A24; concentration 0 to 10 μM, negative control peptide): constant MFI

Substance: VYTYIQSRF [SEQ ID No: 5, DYRK4-derived natural peptide]
- binding to HLA-A24 (HLA-A24): high binding

Substance: IFQGNVHNF [SEQ ID No: 4, SNRNP40-derived natural peptide]
- binding to HLA-A24 (HLA-A24): high binding

Substance: RYGNVSHF [SEQ ID No: 2, SUV39H2-derived natural antigen peptide]
- binding to HLA-A24 (HLA-A24): high binding
- CTL induction (human PBMC): A plurality of CTL clones were induced

Substance: HWNDTRPAHF [SEQ ID No: 1, PVT1-derived natural antigen peptide]
- binding to HLA-A24 (HLA-A24): high binding
- CTL induction (human PBMC): A plurality of CTL clones were induced
